We go through five compounds from ChEMBL document CHEMBL1130300, “Antiinflammatory effects of escins Ia, Ib, IIa, and IIb from horse chestnut, the seeds of Aesculus hippocastanum L” (Bioorg Med Chem Lett, 1997).

SMILES strings stand for the structures. The source made the active and inactive calls. The calls are words filed in the database; no cut-off is given here.

Format in all cases: functional, organism-based
Assay [1] has as its system Rattus norvegicus. Kind of assay: Compound was tested for dose-dependent inhibition in increase of vascular permeability induced by intracutaneous injection of serotonin in rat at 50-200 mg/kg, p.o; Inhibited.
The subject of assay [2] is Mus musculus. Description: Compound at 25-200 mg/kg, p.o., dose-dependently inhibited the scratching behavior induced by subcutaneous injection […]; inhibited.
Assay [3] deals with Rattus norvegicus. Kind of assay: Compound at 200 mg/kg peroral dose in rat showed tendency to inhibit the second phase; inhibited. On the set-up: dose 200 mg/kg.
For assay [4], the system named is Mus musculus. Description: Compound at 50-200 mg/kg, p.o, dose-dependently inhibited the increase of vascular permeability induced by intraperitoneal injection of acetic acid in mice; inhibited.
Assay [5] deals with Rattus norvegicus. Description: Compound at 200 mg/kg, p.o., also significantly inhibited the hind paw edema induced by carrageenan at first phase in rat; inhibited. On the set-up: dose 200 mg/kg.
The test system of assay [6] is Rattus norvegicus. Description: Compound at 50-200 mg/kg, p.o, dose-dependently inhibited the increase of vascular permeability induced by intracutaneous injection of histamine in rat; inhibited.
The test system of assay [7] is Rattus norvegicus. Description: Compound at 200 mg/kg peroral dose in rat showed significant suppression at second phase; suppressed. On the set-up: dose 200 mg/kg.
Assay [8] concerns Rattus norvegicus. Description: Compound was tested for dose-dependent inhibition in increase of vascular permeability induced by intracutaneous injection of serotonin in rat at 200 mg/kg, p.o.; NI means No inhibition. On the set-up: dose 200 mg/kg.

Consider `C/C=C(/C)C(=O)O[C@H]1[C@H](OC(C)=O)[C@@]2(CO)C(CC1(C)C)C1=CCC3[C@@]4(C)CC[C@H](O[C@@H]5O[C@H](C(=O)O)[C@@H](O[C@@H]6O[C@H](CO)[C@@H](O)[C@H](O)[C@H]6O)[C@H](O)[C@H]5O[C@@H]5OC[C@@H](O)[C@H](O)[C@H]5O)[C@](C)(CO)C4CC[C@@]3(C)[C@]1(C)C[C@H]2O` (stereo not given in full), for which the Activity result in the assay on Rattus norvegicus [1], in the assay with Mus musculus [2], in the assay with Rattus norvegicus [3], with Mus musculus [4], in the assay with Rattus norvegicus [5] and in the assay on Rattus norvegicus [6] was “inhibited” in each case.

In the case of `C/C=C(\C)C(=O)O[C@H]1[C@H](OC(C)=O)[C@@]2(CO)C(CC1(C)C)C1=CCC3[C@@]4(C)CC[C@H](O[C@@H]5O[C@H](C(=O)O)[C@@H](O[C@@H]6O[C@H](CO)[C@@H](O)[C@H](O)[C@H]6O)[C@H](O)[C@H]5O[C@@H]5O[C@H](CO)[C@@H](O)[C@H](O)[C@H]5O)[C@](C)(CO)C4CC[C@@]3(C)[C@]1(C)C[C@H]2O` (stereo not given in full), the Activity entry in the assay with Rattus norvegicus [7], in the assay on Rattus norvegicus [1], with Mus musculus [2], with Mus musculus [4], with Rattus norvegicus [5] and in the assay with Rattus norvegicus [6] was “inhibited” each time.

For the compound `CC1(C)CC2C3=CCC4[C@@]5(C)CC[C@H](O[C@@H]6O[C@H](C(=O)O)[C@@H](O[C@@H]7O[C@H](CO)[C@@H](O)[C@H](O)[C@H]7O)[C@H](O)[C@H]6O[C@@H]6O[C@H](CO)[C@@H](O)[C@H](O)[C@H]6O)[C@](C)(CO)C5CC[C@@]4(C)[C@]3(C)C[C@@H](O)[C@@]2(CO)[C@@H](O)[C@@H]1O` (stereo not given in full), the outcome in the assay on Rattus norvegicus [8] was inactive.

In the case of `C/C=C(\C)C(=O)O[C@H]1[C@H](OC(C)=O)[C@@]2(CO)C(CC1(C)C)C1=CCC3[C@@]4(C)CC[C@H](O[C@@H]5O[C@H](C(=O)O)[C@@H](O[C@@H]6O[C@H](CO)[C@@H](O)[C@H](O)[C@H]6O)[C@H](O)[C@H]5O[C@@H]5OC[C@@H](O)[C@H](O)[C@H]5O)[C@](C)(CO)C4CC[C@@]3(C)[C@]1(C)C[C@H]2O` (stereo not given in full), the Activity entry with Rattus norvegicus [1], in the assay on Mus musculus [2], in the assay with Rattus norvegicus [3], in the assay with Mus musculus [4], in the assay on Rattus norvegicus [5] and in the assay with Rattus norvegicus [6] was “inhibited” in each case.

`CC1(C)CC2C3=CCC4[C@@]5(C)CC[C@H](O[C@@H]6O[C@H](C(=O)O)[C@@H](O[C@@H]7O[C@H](CO)[C@@H](O)[C@H](O)[C@H]7O)[C@H](O)[C@H]6O[C@@H]6OC[C@@H](O)[C@H](O)[C@H]6O)[C@](C)(CO)C5CC[C@@]4(C)[C@]3(C)C[C@@H](O)[C@@]2(CO)[C@@H](O)[C@@H]1O` (stereo not given in full): in the assay with Rattus norvegicus [8], the result was inactive.
